Laboratory results: ChEMBL document CHEMBL1201862, “PubChem BioAssay data set” (2004)
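Grown in 96-well plates, cells were treated for 48 hours with each compound at five concentrations. Insufficient inhibition: endpoint recorded as highest concentration tested. Abbreviation: GI50, concentration required for 50% inhibition of growth.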 Activity calls are given as the source filed them. Cut-off read from the data, not from the text of the source: active = GI50 up to about 1.1 µM and inactive = higher.

How the values were obtained:
Assay in all cases: DTP human tumour cell line panel, 48 h
HOP-18 = test system: HOP-18
PC-3 = test system: PC-3
BT-549 = test system: BT-549
Hs-578T = test system: Hs-578T
MDA-MB-231 = test system: MDA-MB-231
MDA-MB-435 = test system: MDA-MB-435
MDA-N = test system: MDA-N
DU-145 = test system: DU-145
RXF 631 = test system: RXF 631

Structure (SMILES)	GI50 (HOP-18)	GI50 (PC-3)	GI50 (BT-549)	GI50 (Hs-578T)	GI50 (MDA-MB-231)	GI50 (MDA-MB-435)	GI50 (MDA-N)	GI50 (DU-145)	GI50 (RXF 631)
O=C1ON(Cc2ccccc2)C(c2ccccc2)N1c1ccccc1 (stereo not drawn)	> 100 µM (inactive)								
O=NN1C(c2ccccc2)CCCC1c1ccccc1 (stereo not drawn)	> 77.8 µM (inactive)								
CCOC(=O)C1=C(C)N(C2OC(COC(=O)c3ccccc3)C(OC(=O)c3ccccc3)C2OC(=O)c2ccccc2)C(=S)NC1c1ccccc1 (stereo not drawn)	16.7 µM (inactive)								
CC(=O)OCC1OC(OCCCCCCO)C(OC(C)=O)C(OC(C)=O)C1OC(C)=O (stereo not drawn)		> 100 µM (inactive)	> 100 µM (inactive)	> 100 µM (inactive)	> 100 µM (inactive)	> 100 µM (inactive)	> 100 µM (inactive)		
Cc1ccc(-c2cc(-c3ccco3)c(C#N)c(=O)n2C2OC(CO)C(O)C(O)C2O)cc1 (stereo not drawn)	> 100 µM (inactive)								
O=C(CC(C(=O)c1cccs1)c1ccc2c(c1)OCO2)c1ccc(Br)cc1 (stereo not drawn)		> 100 µM (inactive)			> 100 µM (inactive)	> 100 µM (inactive)	> 100 µM (inactive)	> 100 µM (inactive)	
CC1(c2ccccc2)N=c2[nH]cnc2=C(C(N)=O)N1 (stereo not drawn)		> 100 µM (inactive)		> 100 µM (inactive)	> 100 µM (inactive)	> 100 µM (inactive)	> 100 µM (inactive)	> 100 µM (inactive)	
C=C(C)CCN[Si](c1ccccc1)(c1ccccc1)C(C)(C)C	17.2 µM (inactive)								20.2 µM (inactive)
CCOC(=O)C(Cc1ccccc1)NC(=O)OC(C)(C)C (stereo not drawn)									> 100 µM (inactive)
COc1ccc(-c2cc(-c3cc(OC)c(OC)c(OC)c3)cc(-c3cc4ccccc4oc3=O)n2)cc1		19.6 µM (inactive)	8.79 µM (inactive)	2.38 µM (inactive)	2.3 µM (inactive)	16.7 µM (inactive)	11.6 µM (inactive)	9.53 µM (inactive)	
O=C(/C=C/c1cccc2ccccc12)c1ccccc1Cl	17.1 µM (inactive)								18.1 µM (inactive)
Clc1cc2c(c(CSC3=NCN(CC4CC4)CN3)c1)OCOC2		23 µM (inactive)	19.1 µM (inactive)	33.7 µM (inactive)	19.5 µM (inactive)	21.8 µM (inactive)	16.3 µM (inactive)	26.1 µM (inactive)	
O=C1C=CC2=[N+]([O-])C(c3ccccc3)(c3ccccc3)/C(=N\c3ccccc3)C2=C1	2.92 µM (inactive)								3.05 µM (inactive)
N#CC1(C#N)C(=O)c2ccncc2C1=O		> 100 µM (inactive)	> 100 µM (inactive)	> 100 µM (inactive)	> 100 µM (inactive)	> 100 µM (inactive)	> 100 µM (inactive)	> 100 µM (inactive)	
CN1NC(c2ccccc2)=C(C#N)C(=O)CC1c1ccc(Br)cc1 (stereo not drawn)	17.9 µM (inactive)								
COC(=O)C12CC3CC(CC(C(=O)O)(C3)C1)C2	> 100 µM (inactive)								> 100 µM (inactive)
CCOC(=O)CC(=O)CSc1c(-c2ccccc2)c(=O)n(-c2ccccc2)c(=S)n1-c1ccccc1		> 100 µM (inactive)		> 100 µM (inactive)	> 100 µM (inactive)	> 100 µM (inactive)	> 100 µM (inactive)	> 100 µM (inactive)	
O=S(=O)(O)c1ccc(/N=N\c2ccc(/N=N/c3ccc(/C=C/c4ccc(/N=[N+](\[O-])c5ccc(/C=C/c6ccc(/N=N/c7ccc(/N=N/c8ccc(S(=O)(=O)O)cc8)c8ccccc78)cc6S(=O)(=O)O)c(S(=O)(=O)O)c5)cc4S(=O)(=O)O)c(S(=O)(=O)O)c3)c3ccccc23)cc1	30.5 µM (inactive)								
CC(=O)O[C@@]12CO[C@@H]1CC(O)[C@@]1(C)C(=O)[C@H](O)C3=C(C)C(O)C[C@@](O)(C(OC(=O)c4ccccc4)C12)C3(C)C (stereo partly drawn)		0.881 µM (active)	1.26 µM (inactive)	0.252 µM (active)	4.19 µM (inactive)	0.18 µM (active)		3.35 µM (inactive)	
C[C@]12CCC(=O)C(O)=C1CC[C@@H]1[C@@H]2CC[C@]2(C)C(=O)CC[C@@H]12 [FORMESTANE]		> 100 µM (inactive)	> 100 µM (inactive)	> 100 µM (inactive)	> 100 µM (inactive)	> 100 µM (inactive)	> 100 µM (inactive)	> 100 µM (inactive)	> 100 µM (inactive)
